From US11433031B2, “Method for manufacturing acetaminophen preparation” (NIPPON ZOKI PHARMACEUTICAL CO., LTD., priority 2016, dated 2022)
Like-named read-outs stand apart in the source and are kept apart here.

Legend:
[1] = data of another company, different apparatus and conditions; cited from earlier work
[2] = Particle size distribution by laser-diffraction method (Mastersizer 2000, dry mode); type: physicochemical; settings: dispersion air pressure 2 Bar, volume conversion
Excerpt: The acetaminophen to be used in the manufacturing method of the present invention (also referred to as “the present acetaminophen”) has a particle size distribution such that d10 is generally 5 to 300 μm, preferably 10 to 200 μm, more preferably 15 to 100 μm, and d90 is generally 200 to 900 μm, preferably 250 to 800 μm, more preferably 300 to 700 μm. Although there are some differences in the particle size distribution among lots, the unpulverized acetaminophen generally has the above-specified particle size distribution. In contrast, although there are some differences in the particle size distribution of a pulverized product of acetaminophen among the manufacturers of the drug substance and production lots, the particle size distribution of a pulverized product of acetaminophen is generally such that the d10 is 3 to 10 μm and d90 is 100 to 250 μm, and therefore the particle diameters of the pulverized product of acetaminophen are smaller compared with those of the present acetaminophen. In the present invention, the particle size distribution is determined by a volume distribution evaluation employing a laser-diffraction scattering method (Mastersizer 2000: Malvern), and the terms “d10”, “d50”, and “d90” refer to particle diameters at a volume cumulative 10% point, a volume cumulative 50% point, and a volume cumulative 90% point, respectively, as observed from the smaller diameter side in the particle size distribution.
Each of unpulverized products of acetaminophen (lots A to D) and a pulverized product of acetaminophen (lot P) was subjected to a particle size distribution measurement using a particle measurement method (a dry mode measurement) by a laser-diffraction method. As a machine, a dry automated dispersion unit microtray (Mastersizer 2000, Malvern) was used, the dispersion compression air pressure was 2 Bar, and the analysis of particle size distribution was performed by a volume conversion method. The results of lots E, F, Q, and R are data which were obtained by another company using a different measurement apparatus under different measurement conditions from those employed in the test of the present invention. As shown in the results of Table 1, difference may sometimes occur depending on the measurement conditions and measurement apparatuses used in the measurement of particle size distribution.

Row | SMILES | D10 [2] [μm] | D90 [2] [μm] | D10 [1] [μm] | D90 [1] [μm]
1 | CC(=O)Nc1ccc(O)cc1 [Lot R, acetaminophen] |  |  | 9.7 | 192
2 | CC(=O)Nc1ccc(O)cc1 [Lot A, acetaminophen] | 20 | 320 |  | 
3 | CC(=O)Nc1ccc(O)cc1 [Lot E, acetaminophen] |  |  | 93 | 559
4 | CC(=O)Nc1ccc(O)cc1 [Lot F, acetaminophen] |  |  | 220 | 663
5 | CC(=O)Nc1ccc(O)cc1 [Lot Q, acetaminophen] |  |  | 5.8 | 104

Second part, led by results:

Row | D10 [2] [μm] | D90 [2] [μm] | SMILES | D10 [1] [μm] | D90 [1] [μm]
6 | 26 | 419 | CC(=O)Nc1ccc(O)cc1 [Lot C, acetaminophen] |  | 
7 | 30 | 551 | CC(=O)Nc1ccc(O)cc1 [Lot B, acetaminophen] |  | 
8 | 3.7 | 166 | CC(=O)Nc1ccc(O)cc1 [Lot P, acetaminophen] |  | 
9 | 20 | 464 | CC(=O)Nc1ccc(O)cc1 [Lot D, acetaminophen] |  | 
